Data as given in patent US4564624A, “8-(Substituted N-phenylcarboxamidomethyl) pyrrolizidines and use thereof as antiarrhythmics” (Suntory Ltd., priority 1982, dated 1986).

What was measured:
ddY strain male mice = assay: in vivo; conditions: mouse
[1] = test system: ventricular arrhythmias induced by chloroform; assay: Antiarrhythmic activity: prevention of chloroform-induced ventricular flutter and fibrillation in mice; conditions: for ED40 / ED50 / ED20: Mus musculus, sc, 0.5 h; for ED50: read-out: ED50 (95% confidence limit); for Therapeutic index: ratio of LD50 and ED50
Procedure: At the time when they ceased to breathe, electrocardiogram of each animal was recorded to observe the flutter and fibrillation of the ventricle.
The abnormalities of ventriculus as observed in these animals can be prevented by previous administration of a substance showing antiarrhythmic activity. A compound of this invention, at various dosages, was subcutaneously injected to mice grouped by 29-40 heads. Thirty minutes later these mice were treated with chloroform to induce arrhythmias. Prophylaxis percentages of the flutter and fibrillation of ventricle for each dosage were calculated.

in vivo = conditions: mouse

Row | Structure (SMILES) | LD50 (ddY strain male mice) [mg/kg] | ED40 [1] [mg/kg] | ED50 [1] [mg/kg] | ED20 [1] [mg/kg] | Therapeutic index [1] | LD50 (in vivo) [mg/kg]
1 | Cc1ccccc1NC(=O)CC12CCCN1CCC2 [Compound 1, N-(2-methylphenyl)-8-pyrrolizidineacetamide] | 385 | 100 | > 100 |  |  | 
2 | Cc1ccc(NC(=O)CC23CCCN2CCC3)cc1 [Compound 2, N-(4-methylphenyl)-8-pyrrolizidineacetamide] | 413 |  |  | 100 |  | 
3 | O=C(CC12CCCN1CCC2)Nc1ccccc1Cl [Compound 3, N-(2-chlorophenyl)-8-pyrrolizidineacetamide] | 347 |  | > 100 | 100 |  | 
4 | O=C(CC12CCCN1CCC2)Nc1ccccc1Br [Compound 4, N-(2-bromophenyl)-8-pyrrolizidineacetamide] | 445 |  | 59 |  | 7.54 | 
5 | COc1ccccc1NC(=O)CC12CCCN1CCC2 [Compound 5, N-(2-methoxyphynyl)-8-pyrrolizidineacetamide] | 381 | 100 | > 100 |  |  | 
6 | COc1cccc(NC(=O)CC23CCCN2CCC3)c1 [Compound 6, N-(3-methoxyphenyl)-8-pyrrolizidineacetamide] | 417 | 100 | > 100 |  |  | 
7 | COc1ccc(NC(=O)CC23CCCN2CCC3)cc1 [Compound 7, N-(4-methoxyphenyl)-8-pyrrolizidineacetamide] | 288 |  | 60 |  | 4.80 | 
8 | Nc1ccccc1NC(=O)CC12CCCN1CCC2 [Compound 8, N-(2-aminophenyl)-8-pyrrolizidineacetamide] | 633 |  | 100 |  | 6.33 | 
9 | Cc1cccc(NC(=O)CC23CCCN2CCC3)c1C [Compound 9, N-(2,3-dimetylphenyl)-8-pyrrolizidineacetamide] | 469 |  | 64 |  | 7.33 | 
10 | Cc1ccc(NC(=O)CC23CCCN2CCC3)c(C)c1 [Compound 10, N-(2,4-dimethylphenyl)-8-pyrrolizidineacetamide] |  | 100 | > 100 |  |  | 398
11 | Cc1ccc(C)c(NC(=O)CC23CCCN2CCC3)c1 [Compound 11, N-(2,5-dimethylphenyl)-8-pyrrolizidineacetamide] | 400 |  | 72 |  | 5.56 | 
12 | Cc1cccc(C)c1NC(=O)CC12CCCN1CCC2 [Compound 12, N-(2,6-dimethylphenyl)-8-pyrrolizidineacetaminde] |  |  | 24 |  |  | 
13 | Cc1ccc(NC(=O)CC23CCCN2CCC3)cc1C [Compound 13, N-(3,4-dimethylphenyl)-8-pyrrolizidineacetamide] | 559 |  | 76 |  | 7.36 | 
14 | Cc1cc(C)cc(NC(=O)CC23CCCN2CCC3)c1 [Compound 14, N-(3,5-dimethylphenyl)-8-pyrrolizidineacetamide] | 355 |  | 52 |  | 6.83 | 
15 | COc1ccc(OC)c(NC(=O)CC23CCCN2CCC3)c1 [Compound 15, N-(2,5-dimethoxyphenyl)-8-pyrrolizidineacetamide] | 203 |  | 90 |  | 2.26 | 
16 | O=C(CC12CCCN1CCC2)Nc1c(Cl)cccc1Cl [Compound 16, N-(2,6-dichlorophenyl)-8-pyrrolizidineacetamide] | 200 |  | > 100 | 100 |  | 
17 | CCc1cccc(CC)c1NC(=O)CC12CCCN1CCC2 [Compound 17, N-(2,6-diethylphenyl)-8-pyrrolizidineacetamide] | 278 |  | 28 |  | 9.93 | 
18 | Cc1cc(C)c(NC(=O)CC23CCCN2CCC3)c(C)c1 [Compound 18, N-(2,4,6-trimethylphenyl)-8-pyrrolizidineacetamide] | 309 |  | 34 |  | 9.09 | 
